Measurements from patent US9670512B2, “Methods and compositions for producing fatty alcohols or fatty aldehydes” (REG Life Sciences, LLC, priority 2008, dated 2017).

What was measured:
[1] = molecular target: T1, PCC7942_orf1594 protein (acyl-ACP reductase) (Synechococcus elongatus, UniProt Q54765); assay: acyl-ACP or acyl-CoA reductase enzyme assay with purified PCC7942_orf1594 protein; type: biochemical, Synechococcus elongatus PCC7942; conditions: for reduction of acyl substrate to fatty aldehyde by PCC7942_orf1594: GC/MS detection of octadecanal/octadecenal, NADPH and divalent cation required
T1 construct: His-tag (C); made in house; host or cells: E. coli BL21 (DE3)
T1 sequence (Q54765 1-341): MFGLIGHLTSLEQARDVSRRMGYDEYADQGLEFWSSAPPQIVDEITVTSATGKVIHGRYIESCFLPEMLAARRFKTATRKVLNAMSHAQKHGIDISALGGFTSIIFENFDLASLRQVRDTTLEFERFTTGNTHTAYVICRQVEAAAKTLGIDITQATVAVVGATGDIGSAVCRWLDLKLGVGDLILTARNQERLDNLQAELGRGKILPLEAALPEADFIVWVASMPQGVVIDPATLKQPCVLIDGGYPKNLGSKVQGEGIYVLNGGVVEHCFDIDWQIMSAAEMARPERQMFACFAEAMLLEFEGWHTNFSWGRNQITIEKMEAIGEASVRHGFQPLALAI
Method: The genomic DNA encoding S. elongatus […] orf1594 (SEQ ID NO:65) was cloned into the NcoI and XhoI sites of vector pET-28b under the control of the T7 promoter. The resulting PCC7942_orf1594 protein contained a C-terminal His-tag. An E. coli BL21 strain (DE3) (Invitrogen) was transformed with the plasmid and PCC7942_orf1594 protein was expressed and purified as described in Example 22. The protein solution was stored in the following buffer: 50 mM sodium phosphate, pH 7.5, 100 mM NaCl, 1 mM THP, 10% glycerol. Protein concentration was determined using the Bradford assay (Biorad). 2 mg/mL of PCC7942_orf1594 protein was obtained.
To test PCC7942_orf1594 protein for acyl-ACP or acyl-CoA reductase activity, the following enzyme assays were set-up. 100 μL reactions were set-up in 50 mM Tris-HCl buffer at pH 7.5 with the following components at their respective final concentrations: 10 μM of purified PCC7942_orf1594 protein, 0.01-1 mM acyl-CoA or acyl-ACP, 2 mM MgCl2, 0.2-2 mM NADPH. The reactions were incubated for 1 h at 37° C. and where stopped by adding 100 μL ethyl acetate (containing 5 mg/l 1-octadecene as internal standard). Samples were vortexed for 15 min and centrifuged at max speed for 3 min for phase separation. 80 μL of the top layer were transferred into GC glass vials and analyzed by GC/MS as described in Example 26. The amount of aldehyde formed was calculated based on the internal standard.

[2] = molecular target: T2, Npun02004178 protein (fatty aldehyde decarbonylase) (Nostoc punctiforme, UniProt B2J1M1); assay: in-vitro fatty aldehyde decarbonylase assay with purified Npun02004178 protein; type: biochemical, Nostoc punctiforme PCC73102; conditions: 200 μM octadecanal, 30 μM Npun02004178, spinach ferredoxin, ferredoxin reductase and NADPH; 37° C., 2 h
T2 construct: His-tag (N); made in house; host or cells: E. coli BL21 (DE3)
T2 sequence (B2J1M1 1-232): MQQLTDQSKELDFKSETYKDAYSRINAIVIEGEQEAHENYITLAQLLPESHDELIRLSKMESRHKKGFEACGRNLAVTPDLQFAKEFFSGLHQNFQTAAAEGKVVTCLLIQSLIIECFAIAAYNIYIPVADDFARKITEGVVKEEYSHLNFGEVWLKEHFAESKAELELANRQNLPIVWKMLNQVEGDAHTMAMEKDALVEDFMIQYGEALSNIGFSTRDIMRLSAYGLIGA
Method: The genomic DNA encoding N. punctiforme PCC73102 Npun02004178 (SEQ ID NO:5) was cloned into the NdeI and XhoI sites of vector pET-15b under the control of the T7 promoter. The resulting Npun02004178 protein contained an N-terminal His-tag. An E. coli BL21 strain (DE3) (Invitrogen) was transformed with the plasmid by routine chemical transformation techniques. Protein expression was carried out by first inoculating a colony of the E. coli strain in 5 mL of LB media supplemented with 100 mg/L of carbenicillin and shaken overnight at 37° C. to produce a starter culture. This starter cultures was used to inoculate 0.5 L of LB media supplemented with 100 mg/L of carbenecillin. […] Protein concentration was determined using the Bradford assay (Biorad). […]
To test Npun02004178 protein for decarbonylation activity, the following enzyme assays were set-up. […] Samples were analyzed by GC/MS using the following parameters: run time: 13.13 min; column: HP-5-MS Part No. 19091S-433E (length of 30 meters; I.D.: 0.25 mm narrowbore; film: 0.25 iM); inject: 1 ii Agilent 6850 inlet; inlet: 300 C splitless; carrier gas: helium; flow: 1.3 mL/min; oven temp: 75° C. hold 5 min, 320 at 40° C./min, 320 hold 2 min; det: Agilent 5975B VL MSD; det. temp: 330° C.; scan: 50-550 M/Z. Heptadecane from Sigma was used as an authentic reference for determining compound retention time and fragmentation pattern. […]

Row | Compound | reduction of acyl substrate to fatty aldehyde by PCC7942_orf1594 [1] | also measured
1 | octadecenoyl-ACP | also able to reduce | –
2 | CCCCCCCCCCCCCCCCCC(=O)SCCNC(=O)CCNC(=O)[C@H](O)C(C)(C)COP(=O)(O)OP(=O)(O)OC[C@H]1O[C@@H](n2cnc3c(N)ncnc32)[C@H](O)[C@@H]1OP(=O)(O)O [octadecanoyl-CoA] | able to reduce octadecanoyl-CoA to octadecanal | –
3 | NC(=O)C1=CN([C@@H]2O[C@H](COP(=O)(O)OP(=O)(O)OC[C@H]3O[C@@H](n4cnc5c(N)ncnc54)[C@H](O)[C@@H]3O)[C@@H](O)[C@H]2O)C=CC1 [NADH, reference compound] | – | support of reductase activity as electron donor ([1]; octadecanoyl-CoA as substrate, Mg2+): did not support reductase activity
4 | NC(=O)C1=CN([C@@H]2O[C@H](COP(=O)(O)OP(=O)(O)OC[C@H]3O[C@@H](n4cnc5c(N)ncnc54)[C@H](OP(=O)(O)O)[C@@H]3O)[C@@H](O)[C@H]2O)C=CC1 [NADPH, reference compound] | – | Km ([1]; in the presence of 0.5 mM octadecanoyl-CoA, read-out: Km value for NADPH): 400 ± 80 µM
5 | CCCCCCCCCCCCCCCCCC=O [octadecanal] | – | in-vitro decarbonylation to heptadecane [2]: in-vitro conversion of octadecanal to heptadecane was observed
6 | octadecenoyl-CoA | also able to reduce | –
